Data reported in patent publication US9017689B2, “Peptides for vaccine against birch allergy” (Circassia Limited, priority 2010, dated 2015).
Read-outs that look alike come from different tables or passages of the source. Ends that are not written are not given here.

Tests used:
[1] = system: Peripheral blood mononuclear cells (PBMCs); test: Cytokine release assay (IL-10, IL-13, IFN-g multiplex bead assay); format: cell-based, human; conditions: proportion of subjects in which peptide induced IL-13 or IFN-g above 100 pg/ml; 47 birch allergic subjects; peptide 100 μg/ml; 5 days
Procedure: Peripheral blood mononuclear cells (PBMCs) were isolated from heparinised blood by Ficoll density gradient centrifugation. […] Following stimulation, culture supernatants (100 μl) were harvested for testing by multiplex bead assay.
Multiplex cytokine bead assays (IL-10, IL-13, Interferon gamma (IFN-g)) were performed on thawed culture supernatants according to the manufacturer's instructions. Single measurements were performed for each culture supernatant sample. After completion of the multiplex assay, individual cytokine levels were determined by interpolation from the standard curve generated in the assay.

[2] = Solubility screening in trehalose matrices pH 2.65 to 7.03; format: physicochemical; conditions: for solubility: read-out: Solubility [mg per ml];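 on all read-outs here: test items are peptides, each checked for solubility in every trehalose matrix, the matrices made up in distilled deionised water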
Procedure: The solubility of each of the nine peptides was evaluated in each of the matrices in accordance with Appendix 1.
Each matrix was prepared at a concentration of 10 mM of the buffering agent.
The procedure indicated is for the preparation of 100 mL of each buffer, but alternative volumes can be prepared by adjusting the quantities. • 0.1M stock solutions of sodium citrate and potassium dihydrogen phosphate were prepared. • Weight of trehalose dihydrate equivalent to 260 mM was transferred to an appropriate mixing vessel containing 70-80 mL of distilled deionised water and allowed to dissolve. • 10 mL of the appropriate stock 0.1M buffer solution was added to the mixing vessel and stirred. • The pH of the matrix was adjusted to the desired value by adding 2 mM hydrochloric acid or 0.1M sodium hydroxide as required. • The solutions were finally diluted to 100 g weight and the pH re-assessed.

[3] = 2 mM HCl and 260 mM trehalose dihydrate, pH 2.65
[4] = 10 mM potassium dihydrogen phosphate and 260 mM trehalose dihydrate, pH 6.03
[5] = 10 mM potassium dihydrogen phosphate and 260 mM trehalose dihydrate, pH 7.03
[6] = 10 mM sodium citrate and 260 mM trehalose dihydrate, pH 3.01
[7] = 10 mM sodium citrate and 260 mM trehalose dihydrate, pH 3.99
[8] = 10 mM sodium citrate and 260 mM trehalose dihydrate, pH 5.02
[9] = 10 mM sodium citrate and 260 mM trehalose dihydrate, pH 6.01
[10] = aqueous buffer, 10 mM potassium dihydrogen phosphate and 260 mM trehalose dihydrate, pH 6.03
[11] = aqueous buffer, 10 mM potassium dihydrogen phosphate and 260 mM trehalose dihydrate, pH 7.03
[12] = aqueous buffer, 10 mM sodium citrate and 260 mM trehalose dihydrate, pH 3.99
[13] = aqueous buffer, 10 mM sodium citrate and 260 mM trehalose dihydrate, pH 5.02
[14] = aqueous buffer, 10 mM sodium citrate and 260 mM trehalose dihydrate, pH 6.01
[15] = water, 2 mM HCl and 260 mM trehalose dihydrate, pH 2.65
[16] = aqueous buffer, 10 mM sodium citrate and 260 mM trehalose dihydrate, pH 3.01

Sequence	Comments (solubility on preparation) [2, 3]	Solubility [mg per ml 'as is'] [2, 3] [mg per ml ‘as is’]	Solubility [μmol per ml] [2, 3] [μmol per ml]	Solubility after 24 Hours [2, 3]	Solubility [mg per ml 'as is'] [2, 4] [mg per ml ‘as is’]	Solubility [μmol per ml] [2, 4] [μmol per ml]	Comments (solubility on preparation) [2, 5]	Solubility [mg per ml 'as is'] [2, 5] [mg per ml ‘as is’]	Solubility [μmol per ml] [2, 5] [μmol per ml]	Solubility after 24 Hours [2, 5]	Comments (solubility on preparation) [2, 6]	Solubility [mg per ml 'as is'] [2, 6] [mg per ml ‘as is’]	Solubility [μmol per ml] [2, 6] [μmol per ml]	Solubility after 24 Hours [2, 6]	Solubility [mg per ml 'as is'] [2, 7] [mg per ml ‘as is’]	Solubility [μmol per ml] [2, 7] [μmol per ml]	Solubility [mg per ml 'as is'] [2, 8] [mg per ml ‘as is’]	Solubility [μmol per ml] [2, 8] [μmol per ml]	Comments (solubility on preparation) [2, 9]	Solubility [mg per ml 'as is'] [2, 9] [mg per ml ‘as is’]	further results
IKYMVIQGEAGAVIRGK (GIKYMVIQGEAGAVIRGK; Betulaceae) [Bir13, Bet v2-derived peptide]	–	–	–	–	–	–	–	–	–	–	–	–	–	–	–	–	–	–	–	–	% responders [1]: 23%
ETLLRAVESYLLAHSDAY [Bir09]	Completely dissolved•	0.92	0.379	Completely dissolved•	0.35	0.143	Completely dissolved	1.52	0.627	Completely dissolved	Undissolved in 1.5 mL•	0.37	0.153	Undissolved	0.36	0.148	0.37	0.154	Completely dissolved	1.03	Solubility [mg per ml] [2, 6]: 0.314 mg per ml; Solubility [μmol per ml] [2, 9]: 0.426 μmol per ml; Solubility after 24 Hours [2, 9]: completely dissolved; solubility [2, 10]: ≥ 293 µg/mL; solubility [2, 11]: ≥ 1290 µg/mL; solubility [2, 12]: ≥ 303 µg/mL; solubility [2, 13]: ≥ 315 µg/mL; solubility [2, 14]: ≥ 875 µg/mL; solubility [2, 15]: ≥ 777 µg/mL
AERERIFKRFDANGEGK [Bir16A]	Completely dissolved	24.86	10.652	Completely dissolved	21.54	9.229	Completely dissolved	21.98	9.418	Completely dissolved	Completely dissolved	7.17	3.074	Completely dissolved	7.49	3.208	23.16	9.923	Completely dissolved	25.86	Commute (solubility on preparation) [2, 4]: Completely dissolved; Solubility after 24 Hours [2, 4]: Completely dissolved; Comments (solubility on preparation) [2, 7]: Completely dissolved; Solubility after 24 Hours [2, 7]: Completely dissolved; Comments (solubility on preparation) [2, 8]: Completely dissolved; Solubility after 24 Hours [2, 8]: Completely dissolved; Solubility [μmol per ml] [2, 9]: 11.080 μmol per ml; Solubility after 24 Hours [2, 9]: Completely dissolved; solubility [2, 10]: ≥ 18700 µg/mL; solubility [2, 11]: ≥ 19100 µg/mL; solubility [2, 16]: ≥ 6220 µg/mL; solubility [2, 12]: ≥ 6490 µg/mL; solubility [2, 13]: ≥ 20100 µg/mL; solubility [2, 14]: ≥ 22400 µg/mL; solubility [2, 15]: ≥ 21600 µg/mL
FNYETETTSVIPAARK [BIR1I]	Completely dissolved	19.50	9.222	Completely dissolved	22.14	10.470	Completely dissolved	20.78	9.827	Completely dissolved	Completely dissolved	1.65	0.779	Completely dissolved	2.28	1.078	2.30	1.089	Completely dissolved	7.45	Commute (solubility on preparation) [2, 4]: Completely dissolved; Solubility after 24 Hours [2, 4]: Completely dissolved; Comments (solubility on preparation) [2, 7]: Completely dissolved; Solubility after 24 Hours [2, 7]: Completely dissolved; Comments (solubility on preparation) [2, 8]: Completely dissolved; Solubility after 24 Hours [2, 8]: Completely dissolved; Solubility [μmol per ml] [2, 9]: 3.522 μmol per ml; Solubility after 24 Hours [2, 9]: Completely dissolved; solubility [2, 10]: ≥ 19100 µg/mL; solubility [2, 11]: ≥ 18000 µg/mL; solubility [2, 16]: ≥ 1420 µg/mL; solubility [2, 12]: ≥ 1970 µg/mL; solubility [2, 13]: ≥ 1990 µg/mL; solubility [2, 14]: ≥ 6430 µg/mL; solubility [2, 15]: ≥ 16800 µg/mL
